Test results taken from patent US20210045385A1, “PYRIDAZINONE-SUBSTITUTED KETOXIMES AS HERBICIDES” (FMC Corporation, priority 2018, published 2021).

Key:
Assay type in all cases: in vivo
[1] = system: duck salad (Heteranthera limosa); experiment: Test D flooded paddy test, visual plant response rating; conditions: 250 g ai/ha, scale 0 to 100 (0 no effect, 100 complete control), 13 to 15 d
How it was run: (§1)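 Rating is visual, on a 0 (no effect) to 100 (complete control) scale versus controls, taken 13 to 15 d after treatment in a greenhouse. Treatment went into paddy water kept 3 cm above the soil surface, with plants at the 2-leaf stage.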

rice (Oryza sativa) = experiment: as above; conditions: 250 g ai/ha, scale 0 to 100 (0 no effect, 100 complete control), 13 to 15 d
How it was run: as §1

[2] = system: sedge umbrella (small-flower umbrella sedge, Cyperus difformis); experiment: as above; conditions: 250 g ai/ha, scale 0 to 100 (0 no effect, 100 complete control), 13 to 15 d
How it was run: as §1

[3] = system: barnyardgrass (Echinochloa crus-galli); experiment: as above; conditions: 250 g ai/ha, scale 0 to 100 (0 no effect, 100 complete control), 13 to 15 d
How it was run: as §1

[4] = system: Italian ryegrass (Lolium mutiflorum); experiment: Test C postemergence, visual plant response rating
How it was run: (§2)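 Visual injury on a 0 (no effect) to 100 (complete control) scale versus untreated controls, scored approximately 10 d after treatment under greenhouse conditions. Treatments used surfactant-containing non-phytotoxic solvent formulations, sprayed onto loam–sand soil preemergence or onto one- to two-leaf plants 2–10 cm tall postemergence.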

[5] = system: galium (catchweed bedstraw, Galium aparine); experiment: Test C postemergence, visual plant response rating
How it was run: as §2

[6] = system: wheat (Triticum aestivum); experiment: Test C postemergence, visual plant response rating
How it was run: as §2

[7] = system: foxtail, giant (giant foxtail, Setaria faberi); experiment: Test C postemergence, visual plant response rating
How it was run: as §2

kochia (Bassia scoparia) [8] = experiment: Test C postemergence, visual plant response rating
How it was run: as §2

[9] = system: barnyardgrass (Echinochloa crus-galli); experiment: Test C postemergence, visual plant response rating
How it was run: as §2

[10] = system: blackgrass (Alopecurus myosuroides); experiment: Test C postemergence, visual plant response rating
How it was run: as §2

[11] = system: pigweed (Amaranthus retroflexus); experiment: Test C postemergence, visual plant response rating
How it was run: as §2

[12] = system: ragweed (common ragweed, Ambrosia artemisiifolia); experiment: Test C postemergence, visual plant response rating
How it was run: as §2

corn (Zea mays) = experiment: Test C postemergence, visual plant response rating
How it was run: as §2

[13] = system: Italian ryegrass (Lolium mutiflorum); experiment: Test C preemergence, visual plant response rating
How it was run: as §2

[14] = system: foxtail, giant (giant foxtail, Setaria faberi); experiment: Test C preemergence, visual plant response rating
How it was run: as §2

kochia (Bassia scoparia) [15] = experiment: Test C preemergence, visual plant response rating
How it was run: as §2

[16] = system: barnyardgrass (Echinochloa crus-galli); experiment: Test C preemergence, visual plant response rating
How it was run: as §2

[17] = system: pigweed (Amaranthus retroflexus); experiment: Test C preemergence, visual plant response rating
How it was run: as §2

[18] = system: ragweed (common ragweed, Ambrosia artemisiifolia); experiment: Test C preemergence, visual plant response rating
How it was run: as §2

[19] = Test C, postemergence, 125 g ai/ha
[20] = Test C, 31 g ai/ha, 0 is no effect, 100 is complete control
[21] = Test C, postemergence, 31 g ai/ha
[22] = Test C, 125 g ai/ha, 0 is no effect, 100 is complete control

SMILES | Plant response rating, Ducksalad (Flood) [1] | Plant response rating, Rice (Flood) (rice (Oryza sativa)) | Plant response rating, Sedge, Umbrella (Flood) [2] | Plant response rating, Barnyardgrass (Flood) [3] | Ryegrass, Italian plant response rating (0 to 100 scale) ([4]; Postemergence, 31 g ai/ha) | Ryegrass, Italian plant response rating (0 to 100 scale) [4, 19] | Galium plant response rating (0 to 100 scale) [5, 19] | Wheat plant response rating (0 to 100 scale) ([6]; Postemergence, 31 g ai/ha) | Wheat plant response rating (0 to 100 scale) [6, 19] | Foxtail, Giant plant response rating (0 to 100 scale) [7, 19] | Kochia plant response rating (0 to 100 scale) (kochia (Bassia scoparia) [8]; [19]) | Barnyardgrass plant response rating (0 to 100 scale) [9, 19] | Blackgrass plant response rating (0 to 100 scale) [10, 19] | Pigweed plant response rating (0 to 100 scale) ([11]; Postemergence, 31 g ai/ha) | Pigweed plant response rating (0 to 100 scale) [11, 19] | Ragweed plant response rating (0 to 100 scale) ([12]; Postemergence, 31 g ai/ha) | Ragweed plant response rating (0 to 100 scale) [12, 19] | Corn plant response rating (0 to 100 scale) (corn (Zea mays); [19]) | Ryegrass, Italian plant response rating (0 to 100 scale) [13, 20] | Foxtail, Giant plant response rating (0 to 100 scale) [14, 20] | other results
CON=C(c1ccc(F)c(Br)c1)c1c(O)c(C)nn(C)c1=O [Compound 177] | 0 | 0 | 0 | 0 | 30 | 60 | 80 | 0 | 0 | 10 | 70 | 20 | 0 | 40 | 60 | 20 | 60 | 0 | 0 | 0 | Galium plant response rating (0 to 100 scale) ([5]; Postemergence, 31 g ai/ha): 40; Foxtail, Giant plant response rating (0 to 100 scale) ([7]; Postemergence, 31 g ai/ha): 10; Kochia plant response rating (0 to 100 scale) (kochia (Bassia scoparia) [8]; Postemergence, 31 g ai/ha): 10; Barnyardgrass plant response rating (0 to 100 scale) ([9]; Postemergence, 31 g ai/ha): 0; Blackgrass plant response rating (0 to 100 scale) ([10]; Postemergence, 31 g ai/ha): 0; Corn plant response rating (0 to 100 scale) (corn (Zea mays); Postemergence, 31 g ai/ha): 0; Ryegrass, Italian plant response rating (0 to 100 scale) ([13]; 125 g ai/ha): 10; Foxtail, Giant plant response rating (0 to 100 scale) ([14]; 125 g ai/ha): 10; Kochia plant response rating (0 to 100 scale) (kochia (Bassia scoparia) [15]; 125 g ai/ha): 0; Kochia plant response rating (0 to 100 scale) (kochia (Bassia scoparia) [15]; [20]): 0; Barnyardgrass plant response rating (0 to 100 scale) ([16]; 125 g ai/ha): 60; Barnyardgrass plant response rating (0 to 100 scale) [16, 20]: 40; Pigweed plant response rating (0 to 100 scale) ([17]; 125 g ai/ha): 10; Pigweed plant response rating (0 to 100 scale) [17, 20]: 0; Ragweed plant response rating (0 to 100 scale) ([18]; 125 g ai/ha): 20; Ragweed plant response rating (0 to 100 scale) [18, 20]: 0
CO/N=C(/c1cc(Cl)cc(Br)c1)c1c(O)c(C)nn(C)c1=O [Compound 156] | 30 | 0 | 30 | 0 | 100 | 100 | 100 | 0 | 50 | 90 | 100 | 70 | 30 | 70 | 80 | 90 | 100 | 20 | 100 | 50 | Galium plant response rating (0 to 100 scale) [5, 21]: 100; Foxtail, Giant plant response rating (0 to 100 scale) [7, 21]: 60; Kochia plant response rating (0 to 100 scale) (kochia (Bassia scoparia) [8]; [21]): 80; Barnyardgrass plant response rating (0 to 100 scale) [9, 21]: 40; Blackgrass plant response rating (0 to 100 scale) [10, 21]: 30; Corn plant response rating (0 to 100 scale) (corn (Zea mays); [21]): 20; Ryegrass, Italian plant response rating (0 to 100 scale) ([13]; 125 g ai/ha): 100; Foxtail, Giant plant response rating (0 to 100 scale) ([14]; 125 g ai/ha): 100; Kochia plant response rating (0 to 100 scale) (kochia (Bassia scoparia) [15]; 125 g ai/ha): 100; Kochia plant response rating (0 to 100 scale) (kochia (Bassia scoparia) [15]; [20]): 40; Barnyardgrass plant response rating (0 to 100 scale) ([16]; 125 g ai/ha): 80; Barnyardgrass plant response rating (0 to 100 scale) [16, 20]: 0; Pigweed plant response rating (0 to 100 scale) ([17]; 125 g ai/ha): 80; Pigweed plant response rating (0 to 100 scale) [17, 20]: 40; Ragweed plant response rating (0 to 100 scale) ([18]; 125 g ai/ha): 100; Ragweed plant response rating (0 to 100 scale) [18, 20]: 100
CCOc1cccc(C(=NOC)c2c(O)c(C)nn(C)c2=O)c1 [Compound 200] | 0 | 0 | 0 | 0 | 0 | 0 | 40 | 0 | 0 | 20 | 0 | 30 | 0 | 0 | 0 | 0 | 0 | 0 | 0 | 0 | Galium plant response rating (0 to 100 scale) ([5]; Postemergence, 31 g ai/ha): 30; Foxtail, Giant plant response rating (0 to 100 scale) ([7]; Postemergence, 31 g ai/ha): 10; Kochia plant response rating (0 to 100 scale) (kochia (Bassia scoparia) [8]; Postemergence, 31 g ai/ha): 0; Barnyardgrass plant response rating (0 to 100 scale) ([9]; Postemergence, 31 g ai/ha): 20; Blackgrass plant response rating (0 to 100 scale) ([10]; Postemergence, 31 g ai/ha): 0; Corn plant response rating (0 to 100 scale) (corn (Zea mays); Postemergence, 31 g ai/ha): 0; Ryegrass, Italian plant response rating (0 to 100 scale) [13, 22]: 0; Foxtail, Giant plant response rating (0 to 100 scale) [14, 22]: 10; Kochia plant response rating (0 to 100 scale) (kochia (Bassia scoparia) [15]; [20]): 0; Kochia plant response rating (0 to 100 scale) (kochia (Bassia scoparia) [15]; [22]): 0; Barnyardgrass plant response rating (0 to 100 scale) [16, 20]: 0; Barnyardgrass plant response rating (0 to 100 scale) [16, 22]: 0; Pigweed plant response rating (0 to 100 scale) [17, 20]: 0; Pigweed plant response rating (0 to 100 scale) [17, 22]: 0; Ragweed plant response rating (0 to 100 scale) [18, 20]: 0; Ragweed plant response rating (0 to 100 scale) [18, 22]: 0
